Reference: patent US4547508A, “1-Phenylisoquinoline derivatives, pharmaceutical products containing these compounds and their use” (Hoechst Aktiengesellschaft, priority 1982, dated 1985)

Legend:
[1] = system: tetrabenazine-induced ptosis; assay: Prevention of the ptosis induced by tetrabenazine in mice after intraperitoneal administration; type: in vivo, male mice (Gassner, NMRI); conditions: ip; mouse, i.p., 30 minutes before TBZ 40 mg/kg i.p.; dose which reduces the mean ptosis index (maximum 4) by 50%
Description: B. Prevention of the ptosis induced by tetrabenazine in mice after intraperitoneal administration
The experimental animals used were male mice (Gassner, NMRI) of body weight 20-26 g. 5 animals were tested in each group. The compounds were suspended in 1% strength methylhydroxyethylcellulose and administered intraperitoneally (i.p.) to the animals in a volume of 10 ml/kg of body weight. The compounds according to the invention were tested in doses of 5, 10 and 20 mg/kg i.p. The control group merely received 10 ml/kg of MH not containing active ingredient i.p.
The componds were administered to the animals 30 minutes before the i.p. administration of tetrabenazine (TBZ). The control group merely received 1% strength MH and TBZ in accordance with the same schedule as that for the animals treated with the test substances.
30 minutes after the TBZ injection (TBZ: 40 mg/kg i.p.), the animals were placed in individual plastic boxes and the ptosis was assessed 1 minute later in accordance with the scheme below:
Eyes closed = 4 (100% ptosis)
Eyes 3/4 closed = 3 (75% ptosis)
Eyes 1/2 closed = 2 (50% ptosis)
Eyes 1/4 closed = 1 (25% ptosis)
Eyes open = 0 (0% ptosis)
The dose defined as the ED50 is that which reduces the mean ptosis index (maximum 4) by 50%.

[2] = Acute toxicity in the mouse after intraperitoneal administration (ALD50); parameters: species or system male mice (Gassner, NMRI); conditions: in vivo, ip, deaths within 24 hours after administration
Description: A. Acute toxicity in the mouse after intraperitoneal administration (ALD50)
The experimental animals used were male mice (Gassner, NMRI) of body weight 20-30 g. 6 animals were tested in each group. The compounds were suspended in 1% strength methylhydroxyethylcellulose (MH) and administered intraperitoneally (i.p.) to the animals in a volume of 10 ml/kg of body weight. The compounds according to the invention were administered in doses of 3, 10, 30 and 100 mg/kg i.p.
The acute lethal dose (ALD50) was determined graphically from the number of animals which died within 24 hours after administration of the compound.

[3] = system: norepinephrine uptake (synaptosomes from rat brain); assay: Inhibition of reuptake of norepinephrine in synaptosomes; type: biochemical; conditions: 14C-norepinephrine, pH 7.4, 37° C., 4 minutes
Description: C. Inhibition of reuptake of norepinephrine in synaptosomes
Synaptosomes from rat brain were isolated by the method of Whittaker (Handbook of Neurochemistry 2, 327-364, Editor A. Lajtha; London and New York, 1969) and the uptake of monoamine was measured by the method of Schacht and Heptner (Biochemical Pharmac. 23, 3413-3422). The ^14 C-norepinephrine uptake was measured in a Krebs-Henseleit bicarbonate buffer pH 7.4 which contained 11 millimoles of glucose. 2.5 ml of the suspension of synaptosomes were incubated with labeled norepinephrine at 37° C. in the presence or absence of the test substance. The incubation time was 4 minutes. Further uptake was then stopped by cooling in ice. In order to exclude non-specific adsorption, control samples were incubated at 0° C. under otherwise identical conditions.
The amounts of norepinephrine taken up were measured using the membrane filtration technique using a Millipore sampling manifold with cellulose nitrate filters of 25 mm diameter and 0.6 micrometer pore size. The synaptosomes were collected under reduced pressure and the radioactivity was determined in a Packard Tricarb scintillation counter. The amount of collected norepinephrine has been reported as a percentage of the radioactivity which was added to the incubation mixture.
The IC50 values (inhibition concentration) in the Table 1 below indicate the concentration of the test substances which show 50% inhibition of the uptake of ^14 C-norepinephrine.

**Q.** Which ED50 [1] does the source give for `CN1CCC(c2cc3ccccc3c(-c3ccccc3)n2)CC1` [Example 25] here?
**A.** 6.59 mg/kg

**Q.** And the LD50 at 24 h [2]?
**A.** 28 mg/kg

**Q.** Which results are given for `CN1CC=C(c2cc3ccccc3c(-c3ccccc3F)n2)CC1` [Example 8]?
**A.** ED50 [1]: 0.54 mg/kg; LD50 at 24 h [2]: 85 mg/kg; IC50 [3]: 10 nM

**Q.** With `C1=C(c2cc3ccccc3c(-c3ccccc3)n2)CNCC1` [Example 20] as the compound, how does the ED50 [1] read?
**A.** 0.33 mg/kg

**Q.** What about the LD50 at 24 h [2] of the same compound?
**A.** 75 mg/kg

**Q.** And the IC50 [3]?
**A.** 13 nM

**Q.** What does the source list for `Cc1ccccc1-c1nc(C2CCN(C)CC2)cc2ccccc12` [Example 27]?
**A.** ED50 [1]: 0.53 mg/kg; LD50 at 24 h [2]: 27 mg/kg

**Q.** For `CCN1CC=C(c2cc3ccccc3c(-c3ccccc3C)n2)CC1` [Example 2, 3-(1-Ethyl-1,2,5,6-tetrahydro-4-pyridyl)-1-(2-methylphenyl)isoquinoline], which ED50 [1] is on record?
**A.** 1.4 mg/kg

**Q.** And the LD50 at 24 h [2]?
**A.** 100 mg/kg

**Q.** Which results are given for `Cc1ccccc1-c1nc(C2=CCNCC2)cc2ccccc12` [Example 3, 1-(2-Methylphenyl)-3-(1,2,5,6-tetrahydro-4-pyridyl)isoquinoline]?
**A.** ED50 [1]: 0.13 mg/kg; LD50 at 24 h [2]: 210 mg/kg; IC50 [3]: 5.6 nM

**Q.** What does the source list for `C=CCN1CCC(c2cc3ccccc3c(-c3ccccc3C)n2)CC1` [Example 23, 3-(1-Allyl-4-piperidinyl)-1-(2-methylphenyl)isoquinoline]?
**A.** ED50 [1]: 3 mg/kg; LD50 at 24 h [2]: 55 mg/kg

**Q.** For `C1=C(c2cc3ccccc3c(-c3ccccc3)n2)CCNC1` [Example 13], which ED50 [1] is on record?
**A.** 0.5 mg/kg

**Q.** And the LD50 at 24 h [2]?
**A.** 300 mg/kg

**Q.** What about the IC50 [3] of the same compound?
**A.** 6.2 nM

**Q.** Which ED50 [1] does the source give for `CN1CC=C(c2cc3ccccc3c(-c3ccccc3Cl)n2)CC1` [Example 6] here?
**A.** 0.79 mg/kg

**Q.** What about the LD50 at 24 h [2] of the same compound?
**A.** 100 mg/kg

**Q.** What about the IC50 [3] of the same compound?
**A.** 33 nM

**Q.** Which ED50 [1] does the source give for `C=CCN1CC=C(c2cc3ccccc3c(-c3ccccc3C)n2)CC1` [Example 11] here?
**A.** 0.49 mg/kg

**Q.** What about the LD50 at 24 h [2] of the same compound?
**A.** 300 mg/kg

**Q.** What does the source list for `c1ccc(-c2nc(C3CCNCC3)cc3ccccc23)cc1` [Example 21, 1-Phenyl-3-(4-piperidinyl)isoquinoline]?
**A.** ED50 [1]: 0.8 mg/kg; LD50 at 24 h [2]: 75 mg/kg; IC50 [3]: 17 nM

**Q.** With `CN1CCC=C(c2cc3ccccc3c(-c3ccccc3)n2)C1` [Example 19] as the compound, how does the ED50 [1] read?
**A.** 3.3 mg/kg

**Q.** And the LD50 at 24 h [2]?
**A.** 40 mg/kg

**Q.** And the IC50 [3]?
**A.** 50 nM
